Publication PMC10746280, “Bacterial efflux pump modulators prevent bacterial growth in macrophages and under broth conditions that mimic the host environment” (mBio, 2023)

System: S. enterica (SL1344 and SA10801)
Experiment: Growth/checkerboard in cation-adjusted Mueller Hinton Broth
Assay type: cell-based
Conditions: MHB
Method: LPM 5.5 is chemically defined, contains low phosphate and low magnesium, and is buffered to pH 5.5 ([34], [39][–][41]). […] It was further noted that mutant strains lacking acrAB or tolC grow poorly in LPM 5.5 compared to the corresponding wild type (Fig. 5C through F).
Overnight cation-adjusted MHB-grown cultures of SL1344 or SA10801 were diluted in MHB or LPM 5.5 to an optical density at 600 nm (OD600) of 0.01 and distributed into polystyrene 96-well flat-bottom plates. EPM analogs were added at concentrations up to 300 µM, near the limit of solubility. The antibiotics ciprofloxacin, doxycycline, and erythromycin were added up to concentrations of 2 µM, 2 µM, and 8 µM, respectively. The final DMSO concentration was at or below 2% in all wells. Plates were grown at 37°C with shaking for 18 h and OD600 was monitored (BioTek Synergy H1, BioTek Eon). Each experiment was performed with biological triplicate or higher as indicated. Percent growth was determined by normalizing to OD600 reads in wells containing no D66 or antibiotic. Checkerboards in LPM 5.5 medium were performed with culture grown overnight in LB and diluted to an OD600 of 0.01 in LPM 5.5 and compounds/antibiotics were added as previously described. MuSyC analysis was pursued as previously described ([44], [45]). […]

How did the “growth inhibition of wild-type bacteria in Mueller Hinton Broth” value turn out when NC1CCN(CC(O)COc2ccc(Cl)c(Cl)c2)C1 (stereo not shown) [CU032] was run?
Its value is “did not inhibit the growth”.
